These results are taken from patent US7709645B2, “Pyrrolo-pyridine kinase modulators” (SGX Pharmaceuticals, Inc., priority 2004, dated 2010).

The structures appear in SMILES notation. Positions count from the first letter of the chain named.

The first experiment deals with T1, Abl T315I kinase domain (unphosphorylated) (Mus musculus, UniProt P00520, T315I).
T1 construct: purified and unphosphorylated T315I Abl kinase domain; made in house; host or cells: E. coli BL21(DE3) strains
T1 sequence (P00520 242-493 T315I limits assumed): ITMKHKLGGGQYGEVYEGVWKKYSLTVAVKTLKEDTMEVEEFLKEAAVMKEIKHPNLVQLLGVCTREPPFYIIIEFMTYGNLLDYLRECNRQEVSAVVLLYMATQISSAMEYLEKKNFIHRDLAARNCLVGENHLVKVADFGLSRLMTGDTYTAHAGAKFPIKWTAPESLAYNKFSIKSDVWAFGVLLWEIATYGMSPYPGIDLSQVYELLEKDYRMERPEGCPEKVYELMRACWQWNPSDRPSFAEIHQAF
Put plainly: Abl_T315I Bioassay (c-Abl PK/LDH coupled enzyme assay). The following applies: 10 μM ATP. The class given is biochemical. From the text: Although the first of these examples uses the kinase domain of a mutant form of Abl T315I (“Abl T315I KD”), the kinase assays may use various forms of mutant and wild type enzymes, including, for example, the entire protein, the kinase domain, or a portion thereof (e.g. Abl Y393F). The kinases used in the assays may also be of varying phosphorylation states. In the c-Abl example, a mutant kinase at a zero phosphorylation state was used.
In the c-Abl Pyruvate Kinase (PK)/Lactate Dehydrogenase (LDH) Coupled Assay the protein kinase dependant phosphorylation of a substrate peptide was coupled to the oxidation of NADH. The oxidation of NADH to NAD+ was detected by monitoring a decrease in absorbance at 340 nm.
Materials: Abl substrate peptide=EAIYAAPFAKKK (SEQ ID NO:1)-OH (Biopeptide, San Diego, Calif.); βNADH (Sigma Cat#N-8129, FW=709.4); 2M MgCl2; 1M HEPES buffer, pH 7.5; Phosphoenolpyruvate (PEP) (Sigma Cat#P-7002, FW=234); Lactate dehydrogenase (LDH) (Worthington Biochemical Cat#2756); Pyruvate Kinase (PK) (Sigma Cat#P-9136); ATP (Sigma Cat#A-3377, FW=551); Greiner 384-well UV star plate; and purified and unphosphorylated T315I Abl kinase domain.
Stock Solutions: 10 mM NADH (7.09 mg/ml in miliQH2O) made fresh daily; 10 mM Abl substrate peptide (13.4 mg/ml in miliQH2O) stored at −20° C.; 100 mM HEPES buffer, pH 7.5 (5 ml 1M stock+45 ml miliQH2O); 100 mM MgCl2 (5 ml 2M MgCl2+95 ml dH2O); 100 mM PEP (23.4 mg/ml in dH2O) stored at −20° C.; 10 mM ATP (5.51 mg/ml in dH2O) stored at −20° C. (diluted 50 μl into total of 10 ml miliQH2O daily=50 μM ATP working stock); 1000 U/ml PK (U/mg varies with lot) flash-frozen under liquid N2 and stored at −80° C.; and 1000 U/ml LDH (U/mg varies with lot) flash-frozen under liquid N2 and stored at −80° C.
Standard Assay Setup for 384-well format (50 μl reaction): 300 μM NADH; 10 mM MgCl2; 2 mM PEP; 45 U/ml PK; 60 U/ml LDH; 200 μM Abl substrate peptide; 2.5 μl test compound (in DMSO); 2 μg/ml Abl kinase domain; 10 μM ATP; 100 mM HEPES buffer. Positive controls contained DMSO with no test compound. Negative controls contained 5 μl of 0.5M EDTA (50 mM in the assay). The dephosphorylated form of the c-Abl T315I mutant was used in the biochemical screening assays. The kinase reaction was initiated at time t=0 by the addition of ATP.
Activity was measured by following the time-dependent loss of NADH by absorbance spectroscopy at 340 nm. The linear portion of the resulting progress curve was then analyzed by linear regression to get the activity in absorbance units/time, reported as the slope of that best fit line (moles/unit time can be calculated from using molar extinction coefficient for NADH at 340 nm, 6250M^−1 cm^−1).
Data was evaluated using the equation: Z′=1−[3*(σ++σ−)/|μ+−μ−|](Zhang, et al., 1999 J Biomol Screening 4(2) 67-73), where μ denotes the mean and σ the standard deviation. The subscript designates positive or negative controls. The Z′ score for a robust screening assay should be ≧0.50. The typical threshold=μ+−3*σ+. Any value that falls below the threshold was designated a “hit”.
Dose response was analyzed using the equation: y=min+{(max−min)/(1+10^[compound]−logIC50)}, where y is the observed initial slope, max=the slope in the absence of inhibitor, min=the slope at infinite inhibitor, and the IC50 is the [compound] that corresponds to ½ the total observed amplitude (Amplitude=max−min).
To measure modulation, activation, or inhibition of Abl KD, a test compound was added to the assay at a range of concentrations. Inhibitors may inhibit Abl KD activity at an IC50 in the micromolar range, the nanomolar range, or, for example, in the subnanomolar range.
An open-reading frame for c-Abl was amplified from a Mus musculus (mouse) cDNA library prepared from freshly harvested mouse liver using a commercially available kit (Invitrogen) by PCR using the following primers: […]
The c-Abl T315I KD (kinase domain) was purified as follows. […]
In the case of `COc1ccccc1-c1c[nH]c2ncc(-c3csc(C(=O)N4CCN(C)CC4)c3)cc12` [AE4], the half-inhibitory concentration (IC50) was under 50 nM.

`COc1ccccc1-c1c[nH]c2ncc(-c3cncc(C(=O)N(C)CCN(C)C)c3)cc12` [AE5] registered an IC50 of under 50 nM.

The molecule `COc1ccccc1-c1c[nH]c2ncc(-c3cccc(C(=O)N4CCC(CO)CC4)c3)cc12` [AE6] showed an IC50 of under 50 nM.

Molecule `COc1ccccc1-c1c[nH]c2ncc(-c3cccc(C(=O)N4CCN(C(C)C)CC4)c3)cc12` [AE7] registered an IC50 of under 50 nM.

For the molecule `COc1ccccc1-c1c[nH]c2ncc(-c3ccc4c(c3)C(=O)NCC(=O)N4)cc12` [AE12], the concentration for half-maximal inhibition (IC50) is under 50 nM.

Take `CCc1ccccc1-c1c[nH]c2ncc(-c3cncc(C(=O)N(C)C)c3)cc12` [AE15]: the IC50 was under 50 nM.

`CCOc1ccccc1-c1c[nH]c2ncc(-c3cncc(C(=O)N(C)C)c3)cc12` [AE16] displayed an IC50 of under 50 nM.

Molecule `CCOc1ccccc1-c1c[nH]c2ncc(-c3cncc(C(=O)NC)c3)cc12` [AE17] showed a concentration for half-maximal inhibition (IC50) of under 50 nM.

In turn, `CCc1ccccc1-c1c[nH]c2ncc(-c3ccnc(F)c3)cc12` [AE18] yielded a half-inhibitory concentration (IC50) of under 50 nM.

In turn, `COc1ccccc1-c1c[nH]c2ncc(-c3c[nH]cn3)cc12` [AE19] registered an IC50 of under 50 nM.

In turn, `COc1ccccc1-c1c[nH]c2ncc(-c3cccc(C(=O)N(C)CCN(C)C)c3)cc12` [AE23] showed an IC50 of under 50 nM.

In turn, `COc1ccccc1-c1c[nH]c2ncc(-c3cccc(C(=O)N4CCN(CCN5CCOCC5)CC4)c3)cc12` [AE24] yielded an IC50 of under 50 nM.

The molecule `COc1ccccc1-c1c[nH]c2ncc(-c3ccc(O)c(C(=O)N(C)CCN(C)C)c3)cc12` [AE25] returned an IC50 of under 50 nM.

`O=C(c1cccc(-c2cnc3[nH]cc(-c4ccccc4F)c3c2)c1)N1CCOCC1` [AE29]: the half-inhibitory concentration (IC50) is under 50 nM.

As to `COc1cccc(OC)c1-c1c[nH]c2ncc(-c3cccc(C(=O)N4CCOCC4)c3)cc12` [AE37], the IC50 is under 50 nM.

`Oc1cccc(-c2cnc3[nH]cc(-c4ccoc4)c3c2)c1` [AE47] returned an IC50 of under 50 nM.

`Oc1cccc(-c2cnc3[nH]cc(Sc4ccccc4)c3c2)c1` [AE51] gave an IC50 of 50 to 200 nM.

The next experiment addresses T2, T315I mutant form of BCR-ABL in Ba/F3 cells (Homo sapiens, UniProt P00519, T315I).
T2 construct: expressed in transfected cells; host or cells: Ba/F3 cells; the other entry of the earlier key: BCR (P11274, Breakpoint cluster region protein)
T2 sequence (P00519 242-493 T315I limits assumed): T1 sequence (P00520 242-493 T315I limits assumed) with S95N
Put plainly: Abl_T315I p-ELISA Cellular Assay (BCR-ABL phospho-ELISA). To be noted: 60-120 minutes incubation. It is filed as cell-based. The procedure: Cells (Ba/F3 cells transfected with WT BCR-ABL, other kinases, or T315I, Y253F, M351T, E255K, or other mutant forms of BCR-ABL) were grown in the absence of IL-3 at least ½ week before the assay. The day before assay, the cells were fed with fresh media so that at the time of assay the cells were in log phase. Ba/F3 cells that had been grown in the absence of IL-3 for at least ½ week were resuspended in RPMI 1640 so that each well of a 96-well plate would contain approximately 200,000 cells. Cells were distributed in a 96-well plate containing serially diluted concentrations of test compounds. Cells were typically incubated with or without test compounds for 60-120 minutes at 5% CO2, 37° C. The incubation was performed with or without other additives such as 10% FCS or 50% human plasma. After incubation of compounds, lysis buffer was added and incubated for 10-15 minutes; the lysate was cleared by centrifugation.
To make the ELISA plate, commercially available Anti-ABL antibodies (e.g. (Ab-3, Calbiochem OP20) were prepared at a concentration of 0.125 μg/ml in coating buffer (0.1M Na-carbonate, pH 9.5), and plated at 10 ml per plate (12.5 μl 100 μg/ml Ab/10 ml). In a high binding multi-well plate, 100 μl Ab in coating buffer were added to each well, and each plate was covered with a plate seal and incubated overnight at 4° C.
Excess antibody was removed and the ELISA plate was washed 3-4 times with 200 μl of wash buffer (0.05% Tween in PBS, pH 7.4). 150 μl of lysate (see above) were transferred to the ELISA plate. Plates were sealed and incubated 2 hours at room temperature. The detection antibody (e.g. HRP conjugated anti-pTyr or unconjugated α-p-Y 4G10, Upstate) was prepared in assay diluent. The antibody was diluted 1:1000 (stock=2 μg/μl, 200 μg in 100 μl; f.c.=2 μg/ml) in assay diluent and 10 ml of diluted antibody per plate were added. The lysate was removed from the ELISA plates, and wells were washed four times with 200 μl of wash buffer per well. 100 μl of detection antibody was added to each well; the plate was covered, and incubated 1 hr at room temperature (21° C.). Excess detection antibody was removed from the ELISA plates, and the wells were washed four times with 200 μl of wash buffer per well.
If necessary, (i.e. for unconjugated anti-pTyr antibody) secondary antibody (goat anti-rabbit HRP) was diluted 1:3000 in assay diluent (3.33 μl per 10 ml diluent) and added at 10 ml of diluted antibody per plate. Excess secondary antibody was removed from the ELISA plate, and the plate was washed four times with 200 μl per well of wash buffer.
Substrate Reagent A and Substrate Reagent B (Pierce Cat#37070 SuperSignal ELISA Pico Chemiluminescent Substrate) were added immediately before use (10 ml resultant solution per plate). 100 μl substrate were added per well, mixed for 1 minute, and chemiluminescent signal was measured with a luminometer.
Molecule `COc1ccccc1-c1c[nH]c2ncc(-c3csc(C(=O)N4CCN(C)CC4)c3)cc12` [AE4] came in with an IC50 of 100 to 1000 nM.

For `COc1ccccc1-c1c[nH]c2ncc(-c3cncc(C(=O)N(C)CCN(C)C)c3)cc12` [AE5], the IC50 is under 100 nM.

In turn, `COc1ccccc1-c1c[nH]c2ncc(-c3cccc(C(=O)N4CCC(CO)CC4)c3)cc12` [AE6] showed a half-inhibitory concentration (IC50) of under 100 nM.

With `COc1ccccc1-c1c[nH]c2ncc(-c3cccc(C(=O)N4CCN(C(C)C)CC4)c3)cc12` [AE7], the IC50 was under 100 nM.

`CCc1ccccc1-c1c[nH]c2ncc(-c3cncc(C(=O)N(C)C)c3)cc12` [AE15] returned a half-maximal inhibitory concentration (IC50) of 100 to 1000 nM.

In the case of `CCOc1ccccc1-c1c[nH]c2ncc(-c3cncc(C(=O)N(C)C)c3)cc12` [AE16], the IC50 lay in the range of 100 to 1000 nM.

In turn, `CCc1ccccc1-c1c[nH]c2ncc(-c3ccnc(F)c3)cc12` [AE18] showed an IC50 of 100 to 1000 nM.

As for `COc1ccccc1-c1c[nH]c2ncc(-c3c[nH]cn3)cc12` [AE19], the IC50 lay in the range of 100 to 1000 nM.

For `COc1ccccc1-c1c[nH]c2ncc(-c3ccc(O)c(C(=O)N(C)CCN(C)C)c3)cc12` [AE25], the 50% inhibitory concentration (IC50) was under 100 nM.

Turning to `O=C(c1cccc(-c2cnc3[nH]cc(-c4ccccc4F)c3c2)c1)N1CCOCC1` [AE29], the concentration for half-maximal inhibition (IC50) lay in the range of 100 to 1000 nM.

Take `COc1cccc(OC)c1-c1c[nH]c2ncc(-c3cccc(C(=O)N4CCOCC4)c3)cc12` [AE37]: the IC50 was under 100 nM.
